The record followed here is patent US8263609B2, “Tetrahydro-β-carbolin-sulfonamide derivatives as 5-Ht6 ligands” (Laboratorios Del Dr. Esteve, S.A., priority 2005, dated 2012).

pKi: −log10 of the molar value.

Data set [1] concerns the target T1, 5HT6-human recombinant receptor (Homo sapiens, UniProt P50406).
T1 construct: purchased Receptor Biology; host or cells: HEK-293 cell membranes
The data set is described as follows: Binding to Serotonin Receptor 5HT6 ([3H]-LSD radioligand displacement, HEK-293 cell membranes). The conditions noted are these: [3H]-LSD 2.7 nM, HEK-293 membranes; for pKi: non-linear regression EBDA/LIGAND; for inhibition at 0.1 µM: compound at 10^−7 M, 60 min, 37° C. On the procedure: Binding to Serotonin Receptor 5HT6
Cell membranes of HEK-293 cells expressing the 5HT6-human recombinant receptor were supplied by Receptor Biology. In said membranes the receptor concentration is 2.18 pmol/mg protein and the protein concentration is 9.17 mg/ml. The experimental protocol follows the method of B. L. Roth et al. [B. L. Roth et al., The Journal of Pharmacology and Experimental Therapeutics, 1994, 268, 1403] with the following slight changes. The respective part of the literature description is hereby incorporated by reference and forms part of the disclosure.
The commercial membrane is diluted (1:40 dilution) with the binding buffer: 50 mM Tris-HCl, 10 mM MgCl2, 0.5 mM EDTA (pH 7.4). The radioligand used is [^3H]-LSD at a concentration of 2.7 nM with a final volume of 200 μl. incubation is initiated by adding 100 μl of membrane suspension, (≈22.9 μg membrane protein), and is prolonged for 60 minutes at a temperature of 37° C. The incubation is ended by fast filtration in a Brandel Cell Harvester through fiber glass filters made by Schleicher & Schuell GF 3362 pretreated with a solution of polyethylenimine at 0.5%. The filters are washed three times with three milliliters of buffer Tris-HCl 50 mM pH 7.4. The filters are transferred to flasks and 5 ml of Ecoscint H liquid scintillation cocktail are added to each flask. The flasks are allowed to reach equilibrium for several hours before counting with a Wallac Winspectral 1414 scintillation counter. Non-specific binding is determined in the presence of 100 μM of serotonin. Tests were made in triplicate. The inhibition constants (Ki, nM) were calculated by non-linear regression analysis using the program EBDA/LIGAND described in Munson and Rodbard, Analytical Biochemistry, 1980, 107, 220, which is hereby incorporated by reference and forms part of the disclosure.
(Displacement assays read how much labelled ligand stays bound in the presence of the test substance.)

T1 sequence (P50406 whole entry): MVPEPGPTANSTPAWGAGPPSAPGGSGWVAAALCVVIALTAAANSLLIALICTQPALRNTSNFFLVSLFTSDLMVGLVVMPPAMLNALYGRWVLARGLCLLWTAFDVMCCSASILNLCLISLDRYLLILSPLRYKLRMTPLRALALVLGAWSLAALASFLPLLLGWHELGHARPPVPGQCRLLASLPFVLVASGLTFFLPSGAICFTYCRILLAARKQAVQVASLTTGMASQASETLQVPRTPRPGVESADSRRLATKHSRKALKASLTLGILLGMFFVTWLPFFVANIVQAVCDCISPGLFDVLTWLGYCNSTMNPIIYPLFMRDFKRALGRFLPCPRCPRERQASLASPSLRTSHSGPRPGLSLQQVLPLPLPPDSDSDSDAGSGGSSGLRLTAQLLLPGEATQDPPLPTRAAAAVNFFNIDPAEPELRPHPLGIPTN

For `CN1CCc2c([nH]c3ccc(NS(=O)(=O)c4cccc5c(N(C)C)cccc45)cc23)C1`, the melting point lay in the range of 241 to 242 °C.

`CN1CCc2c([nH]c3ccc(NS(=O)(=O)c4cc5ccccc5o4)cc23)C1` showed a melting point of 165 to 166 °C.

For the compound `CN1CCc2c([nH]c3ccc(NS(=O)(=O)c4ccc(F)c5ccccc45)cc23)C1`, the melting point fell in the range of 236 to 238 °C.

`CN1CCc2c([nH]c3ccc(NS(=O)(=O)c4ccc5ccc(Cl)cc5c4)cc23)C1` registered a melting point of 230 to 231 °C.

The compound `CCN1CCc2c([nH]c3ccc(NS(=O)(=O)c4ccc5ccccc5c4)cc23)C1` showed a melting point of 174 to 176 °C.

Compound `O=S(=O)(Nc1ccc2[nH]c3c(c2c1)CCN(CC(F)(F)F)C3)c1c(Cl)nc2sccn12` came in with a melting point of 232 to 233 °C.

`O=S(=O)(Nc1ccc2[nH]c3c(c2c1)CCN(CC(F)(F)F)C3)c1ccc2c(Cl)cccc2c1`: the melting point lay within 164 to 166 °C.

The compound `O=S(=O)(Nc1ccc2[nH]c3c(c2c1)CCN(CC(F)(F)F)C3)c1csc2ccccc12` returned a melting point of 173 to 175 °C.

As to `CN1CCc2c([nH]c3ccc(NS(=O)(=O)c4cccc5ccccc45)cc23)C1`, the melting point was 245 to 246 °C.

`CN1CCc2c([nH]c3cccc(NS(=O)(=O)c4c(Cl)nc5sccn45)c23)C1` yielded a melting point of 252 to 253 °C.

Compound `CN1CCc2c([nH]c3cccc(NS(=O)(=O)c4csc5ccccc45)c23)C1` registered a melting point of 236 to 237 °C.

In turn, `CN1CCc2c([nH]c3cccc(NS(=O)(=O)c4cccc5ccccc45)c23)C1` gave a melting point of 217 to 218 °C.

`CN1CCc2c([nH]c3cccc(NS(=O)(=O)c4ccc5c(Cl)cccc5c4)c23)C1` had a melting point of 245 to 247 °C.

On to `CN1CCc2c([nH]c3cc(NS(=O)(=O)c4csc5ccccc45)ccc23)C1`, for which the melting point lay in the range of 255 to 257 °C.

`CN1CCc2c([nH]c3cc(NS(=O)(=O)c4ccc5c(Cl)cccc5c4)ccc23)C1` registered a melting point of 257 to 259 °C.

On to `CN1CCc2c([nH]c3c(NS(=O)(=O)c4cccc5c(Cl)cccc45)cccc23)C1`, for which the melting point lay within 251 to 252 °C.

With `CN1CCc2c([nH]c3c(NS(=O)(=O)c4ccc5c(Cl)cccc5c4)cccc23)C1`, the melting point lay in the range of 256 to 257 °C.

`CN1CCc2c([nH]c3c(NS(=O)(=O)c4cccc5c(N(C)C)cccc45)cccc23)C1` came in with a melting point of 225 to 226 °C.

`CN1CCc2c([nH]c3c(NS(=O)(=O)c4c(Cl)nc5sccn45)cccc23)C1` yielded a melting point of 230 to 232 °C.

`CN1CCc2c([nH]c3c(NS(=O)(=O)c4cccc5ccccc45)cccc23)C1`: the melting point was 259 to 260 °C.

In turn, `CN1CCc2c([nH]c3c(NS(=O)(=O)c4cccc5nsnc45)cccc23)C1` registered a melting point of 238 to 240 °C.

For `CN1CCc2c([nH]c3c(NS(=O)(=O)c4cc5ccccc5o4)cccc23)C1`, the melting point was 229 to 231 °C.

In turn, `CN1CCc2c([nH]c3c(NS(=O)(=O)c4cccc5nonc45)cccc23)C1` came in with a melting point of 246 to 247 °C.

For `Cc1c(S(=O)(=O)Nc2ccc3[nH]c4c(c3c2)CCN(C)C4)sc2ccc(Cl)cc12`, the melting point is 259 to 260 °C.

The compound `CN1CCc2c([nH]c3ccc(NS(=O)(=O)c4cccc5nsnc45)cc23)C1` showed a melting point of 244 to 245 °C.

Consider `CC(=O)Nc1ccc(S(=O)(=O)Nc2ccc3[nH]c4c(c3c2)CCN(C)C4)cc1`, for which the melting point lay in the range of 232 to 234 °C.

`CN1CCc2c([nH]c3ccc(NS(=O)(=O)c4ccc(N)cc4)cc23)C1` displayed a melting point of 236 to 237 °C.

`CC(=O)Nc1nc(C)c(S(=O)(=O)Nc2ccc3[nH]c4c(c3c2)CCN(C)C4)s1` gave a melting point of 199 to 200 °C.

For `CN1CCc2c([nH]c3ccc(NS(=O)(=O)c4c(Cl)nc5sccn45)cc23)C1` [Example 1, 6-chloro-imidazo[2,1-b]thiazole-5-sulfonic acid (2-methyl-2,3,4,9-tetrahydro-1H-β-carbolin-6-yl)-amide], the melting point fell in the range of 232 to 233 °C. Moreover, in data set [1], the pKi is 9.05 and the inhibition at 0.1 µM came to 80.7%.

`CN1CCc2c([nH]c3ccc(NS(=O)(=O)c4csc5ccccc45)cc23)C1` [Example 2, Benzo[b]thiophene-3-sulfonic acid (2-methyl-2,3,4,9-tetrahydro-1H-β-carbolin-6-yl)-amide] came in with a melting point of 224 to 226 °C. Moreover, in data set [1], the negative logarithm of the Ki (pKi) is 8.55 and the inhibition at 0.1 µM came to 79.5%.

Consider `CN1CCc2c([nH]c3ccc(NS(=O)(=O)c4ccc5c(Cl)cccc5c4)cc23)C1` [Example 4, 5-Chloro-naphthalene-2-sulfonic acid (2-methyl-2,3,4,9-tetrahydro-1H-β-carbolin-6-yl)-amide], for which, in data set [1], the inhibition at 0.1 µM worked out at 70.6%.

For the compound `CN1CCc2c([nH]c3ccc(NS(=O)(=O)c4ccc5ccccc5c4)cc23)C1` [Example 12, Naphthalene-2-sulfonic acid (2-methyl-2,3,4,9-tetrahydro-1H-β-carbolin-6-yl)-amide], the melting point was in the range of 244 to 245 °C. In data set [1], the pKi was 7.80 and the inhibition at 0.1 µM was found to be 89.7%.

Compound `Cc1ccc2sc(S(=O)(=O)Nc3ccc4[nH]c5c(c4c3)CCN(C)C5)cc2c1` [Example 13, 5-Methyl-benzo[b]thiophene-2-sulfonic acid (2-methyl-2,3,4,9-tetrahydro-1H-β-carbolin-6-yl)-amide] yielded a melting point of 241 to 242 °C. Besides, in data set [1], the inhibition at 0.1 µM was found to be 71.1%.

For `CN1CCc2c([nH]c3ccc(NS(=O)(=O)c4ccc5cc(Cl)ccc5c4)cc23)C1` [Example 16, 6-Chloro-naphthalene-2-sulfonic acid (2-methyl-2,3,4,9-tetrahydro-1H-β-carbolin-6-yl)-amide], the melting point is 174 to 175 °C. Also, the inhibition at 0.1 µM in data set [1] is 85%.

`CCN1CCc2c([nH]c3ccc(NS(=O)(=O)c4c(Cl)nc5sccn45)cc23)C1` [Example 19, 6-Chloro-imidazo[2,1-b]thiazole-5-sulfonic acid (2-ethyl-2,3,4,9-tetrahydro-1H-β-carbolin-6-yl)-amide] returned a melting point of 219 to 222 °C. Moreover, in data set [1], the pKi is 8.96 and the inhibition at 0.1 µM amounted to 97%.

Regarding `CCN1CCc2c([nH]c3ccc(NS(=O)(=O)c4csc5ccccc45)cc23)C1` [Example 22, Benzo[b]thiophene-3-sulfonic acid (2-ethyl-2,3,4,9-tetrahydro-1H-β-carbolin-6-yl)-amide], the melting point lay in the range of 215 to 216 °C. Also, in data set [1], the pKi was 7.44 and the inhibition at 0.1 µM is 84.6%.

As for `CCCN1CCc2c([nH]c3ccc(NS(=O)(=O)c4c(Cl)nc5sccn45)cc23)C1` [Example 26, 6-Chloro-imidazo[2,1-b]thiazole-5-sulfonic acid (2-propyl-2,3,4,9-tetrahydro-1H-β-carbolin-6-yl)-amide], the melting point is 206 to 207 °C. Moreover, in data set [1], the negative-log Ki (pKi) was 8.70 and the inhibition at 0.1 µM is 87.9%.

`CC(C)N1CCc2c([nH]c3ccc(NS(=O)(=O)c4c(Cl)nc5sccn45)cc23)C1` [Example 27, 6-Chloro-imidazo[2,1-b]thiazole-5-sulfonic acid (2-isopropyl-2,3,4,9-tetrahydro-1H-β-carbolin-6-yl)-amide] came in with a melting point of 234 to 235 °C. Besides, the inhibition at 0.1 µM in data set [1] was determined as 81.8%.

As for `CN1CCc2c([nH]c3ccc(NS(=O)(=O)c4ccc5ccccc5c4)cc23)C1c1ccccc1` (stereo not drawn) [Example 28, Naphthalene-2-sulfonic acid (2-methyl-1-phenyl-2,3,4,9-tetrahydro-1H-β-carbolin-6-yl)-amide], the melting point fell in the range of 255 to 260 °C.

Regarding `CN1CCc2c([nH]c3ccc(NS(=O)(=O)c4csc5ccccc45)cc23)C1c1ccccc1` (stereo not drawn) [Example 29, Benzo[b]thiophene-3-sulfonic acid (2-methyl-1-phenyl-2,3,4,9-tetrahydro-1H-β-carbolin-6-yl)-amide], the melting point lay in the range of 232 to 234 °C.

`CN1CCc2c([nH]c3cc(NS(=O)(=O)c4c(Cl)nc5sccn45)ccc23)C1` [Example 35, 6-Chloro-imidazo[2,1-b]thiazole-5-sulfonic acid (2-methyl-2,3,4,9-tetrahydro-1H-β-carbolin-7-yl)-amide] had a melting point of 225 to 227 °C. For the same compound, in data set [1], the negative logarithm of the Ki (pKi) was 8.10 and the inhibition at 0.1 µM was found to be 90%.

For the compound `O=S(=O)(Nc1ccc2[nH]c3c(c2c1)CCNC3)c1c(Cl)nc2sccn12` [Example 47, 6-chloro-imidazo[2,1-b]thiazole-5-sulfonic acid (2,3,4,9-tetrahydro-1H-β-carbolin-6-yl)-amide], the melting point was in the range of 242 to 244 °C.

For orientation: melting point means the temperature, or range, at which the solid turns liquid. A word on the pKi: it is −log10 of the Ki, conventionally taken in molar units. The inhibition is the relative decrease from the control value, in per cent.
